The source of these data is patent US7186864B2, “Glucocorticoid mimetics, methods of making them, pharmaceutical compositions, and uses thereof” (Boehringer Ingelheim Pharmaceuticals, Inc., priority 2002, dated 2007).

This assay deals with T1, human glucocorticoid receptor (GR) complex (Homo sapiens, UniProt P04150).
T1 construct: made in house; host or cells: insect expression system (baculovirus lysate)
T1 sequence (P04150 1-777): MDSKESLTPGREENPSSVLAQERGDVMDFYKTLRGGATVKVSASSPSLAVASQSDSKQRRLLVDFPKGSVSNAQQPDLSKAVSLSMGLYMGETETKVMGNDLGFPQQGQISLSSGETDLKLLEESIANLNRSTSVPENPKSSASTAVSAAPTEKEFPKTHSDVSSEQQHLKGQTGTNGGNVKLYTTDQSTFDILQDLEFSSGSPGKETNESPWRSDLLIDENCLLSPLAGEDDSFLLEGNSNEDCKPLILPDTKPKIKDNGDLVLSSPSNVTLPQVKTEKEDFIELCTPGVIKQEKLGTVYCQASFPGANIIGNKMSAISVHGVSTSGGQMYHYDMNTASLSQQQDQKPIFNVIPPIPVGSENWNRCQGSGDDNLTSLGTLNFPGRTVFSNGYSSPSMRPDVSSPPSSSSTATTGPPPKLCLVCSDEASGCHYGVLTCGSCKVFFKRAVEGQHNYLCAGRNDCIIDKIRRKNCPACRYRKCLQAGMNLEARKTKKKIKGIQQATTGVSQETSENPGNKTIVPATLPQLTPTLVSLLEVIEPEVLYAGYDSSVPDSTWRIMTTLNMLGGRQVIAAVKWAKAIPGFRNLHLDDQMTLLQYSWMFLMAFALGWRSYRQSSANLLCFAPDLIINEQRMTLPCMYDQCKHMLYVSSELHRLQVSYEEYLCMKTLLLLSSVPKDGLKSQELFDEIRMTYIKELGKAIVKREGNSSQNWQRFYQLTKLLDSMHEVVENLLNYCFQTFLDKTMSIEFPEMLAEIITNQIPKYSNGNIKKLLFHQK
Put plainly: Glucocorticoid receptor competitive binding assay (fluorescence polarization, TAMRA-labeled dexamethasone probe). The note with it: qualitative statement, values not given. How it is done:
Compounds of the invention were evaluated for binding to the steroid receptor by a fluorescence polarization competitive binding assay. Detailed descriptions for preparation of recombinant glucocorticoid receptor (GR) complex used in the assay is described in Goldrick et al., U.S. provisional application No. 60/291,877, filed May 18, 2001 (corresponding to Goldrick et al., U.S. nonprovisional application No. 10/151,133, filed May 20, 2002) both incorporated herein by reference in their entirety. Preparation of the tetramethyl rhodamine (TAMRA)-labeled dexamethasone probe was accomplished using a standard literature procedure (M. Pons et al., J. Steroid Biochem., 1985, 22, pp. 267–273).
A. Glucocorticoid Receptor Competitive Binding Assay
Step 1. Characterization of the Fluorescent Probe
The wavelengths for maximum excitation and emission of the fluorescent probe should first be measured. An example of such a probe is rhodamine (TAMRA)-labeled dexamethasone.
The affinity of the probe for the steroid receptor was then determined in a titration experiment. The fluorescence polarization value of the probe in assay buffer was measured on an SLM-8100 fluorometer using the excitation and emission maximum values described above. Aliquots of expression vector lysate were added and fluorescence polarization was measured after each addition until no further change in polarization value was observed. Non-linear least squares regression analysis was used to calculate the dissociation constant of the probe from the polarization values obtained for lysate binding to the probe.
Step 2. Screening for Inhibitors of Probe Binding
This assay uses fluorescence polarization (FP) to quantitate the ability of test compounds to compete with tetramethyl rhodamine (TAMRA)-labeled dexamethasone for binding to a human glucocorticoid receptor (GR) complex prepared from an insect expression system. The assay buffer was: 10 mM TES, 50 mM KCl, 20 mM Na2MoO4.2H2O, 1.5 mM EDTA, 0.04% w/v CHAPS, 10% v/v glycerol, 1 mM dithiothreitol, pH 7.4. Test compounds were dissolved to 1 mM in neat DMSO and then further diluted to 10× assay concentration in assay buffer supplemented with 10% v/v DMSO. Test compounds were serially diluted at 10× assay concentrations in 10% DMSO-containing buffer in 96-well polypropylene plates. Binding reaction mixtures were prepared in 96-well black Dynex microtiter plates by sequential addition of the following assay components to each well: 15 μL of 10× test compound solution, 85 μL of GR-containing baculovirus lysate diluted 1:170 in assay buffer, and 50 μL of 15 nM TAMRA-labeled dexamethasone. Positive controls were reaction mixtures containing no test compound; negative controls (blanks) were reaction mixtures containing 0.7 μM to 2 μM dexamethasone. The binding reactions were incubated for 1 hour at room temperature and then read for fluorescence polarization in the LJL Analyst set to 550 nm excitation and 580 nm emission, with the Rhodamine 561 dichroic mirror installed. IC50 values were determined by iterative non-linear curve fitting of the FP signal data to a 4-parameter logistic equation.
(In general: In fluorescence polarisation assays a small probe gives low polarisation when free and higher when bound to something large.)

For `CC(C)(CC(N)(Cc1cc(Cl)cc(Cl)c1)C(F)(F)F)c1cc(F)ccc1O` (stereo not shown) [Compound 7, 2-[3-Amino-3-(3,5-dichloro-benzyl)-4,4,4-trifluoro-1,1-dimethyl-butyl]-4-fluoro-phenol], the “activity in the GR binding assay” value was “demonstrated activity”.
The value for `COc1ccc(F)cc1C(C)(C)CC(N)(Cc1ccc(C#N)cc1Cl)C(F)(F)F` (stereo not shown) [Compound 5, 4-[2-Amino-4-(5-fluoro-2-methoxy-phenyl)-4-methyl-2-trifluoromethyl-pentyl]-3-chloro-benzonitrile] was “demonstrated activity”.
For `COc1ccc(F)cc1C(C)(C)CC(N)(Cc1ccc(Cl)c(Cl)c1)C(F)(F)F` (stereo not shown) [Compound 3, 1-(3,4-Dichloro-benzyl)-3-(5-fluoro-2-methoxy-phenyl)-3-methyl-1-trifluoromethyl-butylamine] the value was “demonstrated activity”; for `COc1ccc(F)cc1C(C)(C)CC(N)(Cc1cc(Cl)cc(Cl)c1)C(F)(F)F` (stereo not shown) [Compound 2, 1-(3,5-Dichloro-benzyl)-3-(5-fluoro-2-methoxy-phenyl)-3-methyl-1-trifluoromethyl-butylamine], “demonstrated activity”.
With `Cc1cc(C)cc(CC(N)(CC(C)(C)c2cc(F)ccc2O)C(F)(F)F)c1` (stereo not shown) [Compound 6, 2-[3-Amino-3-(3,5-dimethyl-benzyl)-4,4,4-trifluoro-1,1-dimethyl-butyl]-4-fluoro-phenol], the “activity in the GR binding assay” value is “demonstrated activity”.
The value for `COc1ccc(F)cc1C(C)(C)CC(N)(Cc1cc(C)cc(C)c1)C(F)(F)F` (stereo not shown) [Compound 1, 1-(3,5-Dimethyl-benzyl)-3-(5-fluoro-2-methoxy-phenyl)-3-methyl-1-trifluoromethyl-butylamine] was “demonstrated activity”.
For `COc1ccc(F)cc1C(C)(C)CC(N)(Cc1cc(C(F)(F)F)cc(Cl)c1F)C(F)(F)F` (stereo not shown) [Compound 4, 1-(3-Chloro-2-fluoro-5-trifluoromethyl-benzyl)-3-(5-fluoro-2-methoxy-phenyl)-3-methyl-1-trifluoromethyl-butylamine] the value was “demonstrated activity”.
